# Legend:
# Assay in all cases: KINOMEscan
# Format in all cases: binding
# Details in all cases: 10000 nM; read-out: Percent Control
# p38-alpha = target: T1, p38-alpha (Homo sapiens, UniProt Q16539)
# T1 construct: purchased DiscoverX KINOMEscan scanEDGE; Eurofins Cerep SafetyScreen87
# Protocol: (§1) The possibility of KDS12025 on kinase off-target, the KINOMEscan panel of scanEDGE assay was conducted in DiscoverX (CA, USA) using a site-directed competition binding with the test compounds. The assay results are given in Supplementary Table 4 and experimental information is available on the DiscoverX web page (www.discoverx.com). Moreover, the Delta SafetyScreen87 panel assay was conducted in Eurofins Discovery (Cerep, France). The assay results are given in Supplementary Table 5 and experimental information is available on the DiscoverX web page (https://www.eurofinsdiscoveryservices.com).
# PDGFRB = target: T2, PDGFRB (Homo sapiens, UniProt P09619)
# T2 construct: purchased DiscoverX KINOMEscan scanEDGE; Eurofins Cerep SafetyScreen87
# Protocol: as §1
# FGFR2 = target: T3, FGFR2 (Homo sapiens, UniProt P21802)
# T3 construct: purchased DiscoverX KINOMEscan scanEDGE; Eurofins Cerep SafetyScreen87
# Protocol: as §1
# BTK = target: T4, BTK (Homo sapiens, UniProt Q06187)
# T4 construct: purchased DiscoverX KINOMEscan scanEDGE; Eurofins Cerep SafetyScreen87
# Protocol: as §1
# MAP3K4 = target: T5, MAP3K4 (Homo sapiens, UniProt Q9Y6R4)
# T5 construct: purchased DiscoverX KINOMEscan scanEDGE; Eurofins Cerep SafetyScreen87
# Protocol: as §1
# AURKA = target: T6, AURKA (Homo sapiens, UniProt O14965)
# T6 construct: purchased DiscoverX KINOMEscan scanEDGE; Eurofins Cerep SafetyScreen87
# Protocol: as §1
# EPHA2 = target: T7, EPHA2 (Homo sapiens, UniProt P29317)
# T7 construct: purchased DiscoverX KINOMEscan scanEDGE; Eurofins Cerep SafetyScreen87
# Protocol: as §1
# SRC = target: T8, SRC (Homo sapiens, UniProt P12931)
# T8 construct: purchased DiscoverX KINOMEscan scanEDGE; Eurofins Cerep SafetyScreen87
# T8 sequence (P12931 whole entry): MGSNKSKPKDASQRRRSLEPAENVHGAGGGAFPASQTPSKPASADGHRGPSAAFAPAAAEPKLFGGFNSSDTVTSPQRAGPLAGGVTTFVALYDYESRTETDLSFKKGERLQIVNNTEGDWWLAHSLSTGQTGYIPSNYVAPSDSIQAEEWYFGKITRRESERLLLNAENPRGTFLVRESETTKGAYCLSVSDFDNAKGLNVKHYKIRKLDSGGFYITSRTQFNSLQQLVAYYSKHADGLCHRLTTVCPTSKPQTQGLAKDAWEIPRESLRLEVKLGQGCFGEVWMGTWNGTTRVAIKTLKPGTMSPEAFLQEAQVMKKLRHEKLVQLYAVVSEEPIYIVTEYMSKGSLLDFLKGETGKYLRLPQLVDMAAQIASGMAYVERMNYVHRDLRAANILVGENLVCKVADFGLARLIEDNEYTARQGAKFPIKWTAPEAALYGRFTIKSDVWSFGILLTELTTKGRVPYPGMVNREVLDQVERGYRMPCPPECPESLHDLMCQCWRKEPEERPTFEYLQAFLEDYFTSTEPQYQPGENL
# Protocol: as §1
# MARK3 = target: T9, MARK3 (Homo sapiens, UniProt P27448)
# T9 construct: purchased DiscoverX KINOMEscan scanEDGE; Eurofins Cerep SafetyScreen87
# Protocol: as §1
# LKB1 = target: T10, LKB1 (Homo sapiens, UniProt Q15831)
# T10 construct: purchased DiscoverX KINOMEscan scanEDGE; Eurofins Cerep SafetyScreen87
# Protocol: as §1
# CDK2 = target: T11, CDK2 (Homo sapiens, UniProt P24941)
# T11 construct: purchased DiscoverX KINOMEscan scanEDGE; Eurofins Cerep SafetyScreen87
# Protocol: as §1
# TIE2 = target: T12, TIE2 (Homo sapiens, UniProt Q02763)
# T12 construct: purchased DiscoverX KINOMEscan scanEDGE; Eurofins Cerep SafetyScreen87
# Protocol: as §1
# CDK7 = target: T13, CDK7 (Homo sapiens, UniProt P50613)
# T13 construct: purchased DiscoverX KINOMEscan scanEDGE; Eurofins Cerep SafetyScreen87
# Protocol: as §1
# MET = target: T14, MET (Homo sapiens, UniProt P08581)
# T14 construct: purchased DiscoverX KINOMEscan scanEDGE; Eurofins Cerep SafetyScreen87
# T14 sequence (P08581 25-1390): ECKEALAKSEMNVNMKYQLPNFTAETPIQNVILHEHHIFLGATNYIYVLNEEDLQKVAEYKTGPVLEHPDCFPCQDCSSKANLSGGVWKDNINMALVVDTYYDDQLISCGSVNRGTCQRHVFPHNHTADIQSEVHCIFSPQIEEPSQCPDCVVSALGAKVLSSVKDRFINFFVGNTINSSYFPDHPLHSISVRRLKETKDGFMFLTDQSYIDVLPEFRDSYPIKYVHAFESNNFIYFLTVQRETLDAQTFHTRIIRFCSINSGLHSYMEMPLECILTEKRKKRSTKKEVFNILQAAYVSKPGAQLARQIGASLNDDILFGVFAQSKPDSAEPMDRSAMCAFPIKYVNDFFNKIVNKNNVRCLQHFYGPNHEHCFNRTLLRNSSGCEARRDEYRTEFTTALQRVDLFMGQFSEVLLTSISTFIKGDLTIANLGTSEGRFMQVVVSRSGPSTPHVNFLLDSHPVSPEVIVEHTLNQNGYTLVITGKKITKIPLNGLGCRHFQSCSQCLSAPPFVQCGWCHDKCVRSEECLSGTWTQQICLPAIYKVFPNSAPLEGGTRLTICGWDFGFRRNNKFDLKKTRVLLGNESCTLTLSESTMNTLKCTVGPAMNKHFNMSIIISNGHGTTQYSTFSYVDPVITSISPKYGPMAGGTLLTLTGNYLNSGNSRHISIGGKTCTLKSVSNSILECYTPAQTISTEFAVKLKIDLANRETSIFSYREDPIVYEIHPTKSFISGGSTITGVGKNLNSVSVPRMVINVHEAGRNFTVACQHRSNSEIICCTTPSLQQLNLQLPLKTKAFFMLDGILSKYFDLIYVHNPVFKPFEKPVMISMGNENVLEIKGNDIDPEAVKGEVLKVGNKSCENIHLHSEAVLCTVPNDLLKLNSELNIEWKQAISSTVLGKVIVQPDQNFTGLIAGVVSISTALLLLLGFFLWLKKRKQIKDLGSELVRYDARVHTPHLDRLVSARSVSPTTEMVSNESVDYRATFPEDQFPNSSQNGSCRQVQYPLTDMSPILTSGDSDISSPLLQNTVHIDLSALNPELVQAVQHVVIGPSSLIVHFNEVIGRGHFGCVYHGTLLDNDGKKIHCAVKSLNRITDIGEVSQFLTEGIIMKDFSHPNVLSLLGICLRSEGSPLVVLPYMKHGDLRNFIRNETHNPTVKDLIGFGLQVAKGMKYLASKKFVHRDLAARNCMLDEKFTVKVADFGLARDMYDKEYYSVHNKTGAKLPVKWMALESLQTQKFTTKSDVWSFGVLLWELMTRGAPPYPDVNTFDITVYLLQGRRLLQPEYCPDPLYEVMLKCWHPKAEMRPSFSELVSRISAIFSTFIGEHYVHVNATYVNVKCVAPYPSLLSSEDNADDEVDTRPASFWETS
# Protocol: as §1
# PIK3CG = target: T15, PIK3CG (Homo sapiens, UniProt P48736)
# T15 construct: purchased DiscoverX KINOMEscan scanEDGE; Eurofins Cerep SafetyScreen87
# T15 sequence (P48736 whole entry): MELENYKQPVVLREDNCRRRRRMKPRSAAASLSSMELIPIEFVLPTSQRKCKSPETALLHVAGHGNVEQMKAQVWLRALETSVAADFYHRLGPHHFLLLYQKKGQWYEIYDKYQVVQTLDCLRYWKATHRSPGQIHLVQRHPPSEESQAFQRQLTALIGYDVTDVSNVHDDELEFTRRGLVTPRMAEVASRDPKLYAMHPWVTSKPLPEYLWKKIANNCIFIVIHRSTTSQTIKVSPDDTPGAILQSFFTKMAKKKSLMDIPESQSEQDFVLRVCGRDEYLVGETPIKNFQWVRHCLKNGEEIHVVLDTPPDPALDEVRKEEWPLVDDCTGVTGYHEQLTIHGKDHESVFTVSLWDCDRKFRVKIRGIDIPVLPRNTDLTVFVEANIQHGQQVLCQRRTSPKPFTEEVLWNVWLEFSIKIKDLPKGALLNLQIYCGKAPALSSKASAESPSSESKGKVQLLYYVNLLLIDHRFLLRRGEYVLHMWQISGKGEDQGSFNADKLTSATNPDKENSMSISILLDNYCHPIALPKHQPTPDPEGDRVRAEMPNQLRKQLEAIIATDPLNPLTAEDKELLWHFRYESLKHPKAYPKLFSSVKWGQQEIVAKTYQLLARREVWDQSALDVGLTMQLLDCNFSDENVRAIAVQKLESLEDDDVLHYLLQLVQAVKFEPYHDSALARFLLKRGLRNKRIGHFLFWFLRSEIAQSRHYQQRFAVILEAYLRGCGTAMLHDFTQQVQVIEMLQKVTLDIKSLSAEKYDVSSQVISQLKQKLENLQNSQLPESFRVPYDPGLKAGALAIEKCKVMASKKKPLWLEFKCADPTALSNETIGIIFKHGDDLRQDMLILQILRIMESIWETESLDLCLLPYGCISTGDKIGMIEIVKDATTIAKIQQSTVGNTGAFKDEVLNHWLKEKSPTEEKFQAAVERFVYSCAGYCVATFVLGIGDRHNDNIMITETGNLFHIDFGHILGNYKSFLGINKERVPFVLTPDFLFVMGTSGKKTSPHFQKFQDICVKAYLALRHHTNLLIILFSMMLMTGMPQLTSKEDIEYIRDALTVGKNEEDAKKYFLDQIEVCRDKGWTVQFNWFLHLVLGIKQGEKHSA
# Protocol: as §1
# ERBB4 = target: T16, ERBB4 (Homo sapiens, UniProt Q15303)
# T16 construct: purchased DiscoverX KINOMEscan scanEDGE; Eurofins Cerep SafetyScreen87
# Protocol: as §1
# JNK2 = target: T17, JNK2 (Homo sapiens, UniProt P45984)
# T17 construct: purchased DiscoverX KINOMEscan scanEDGE; Eurofins Cerep SafetyScreen87
# Protocol: as §1
# GSK3B = target: T18, GSK3B (Homo sapiens, UniProt P49841)
# T18 construct: purchased DiscoverX KINOMEscan scanEDGE; Eurofins Cerep SafetyScreen87
# Protocol: as §1
# MLK1 = target: T19, MLK1 (Homo sapiens, UniProt P80192)
# T19 construct: purchased DiscoverX KINOMEscan scanEDGE; Eurofins Cerep SafetyScreen87
# Protocol: as §1
# EGFR = target: T20, EGFR (Homo sapiens, UniProt P00533)
# T20 construct: purchased DiscoverX KINOMEscan scanEDGE; Eurofins Cerep SafetyScreen87
# Protocol: as §1
# IKK-beta = target: T21, IKK-beta (Homo sapiens, UniProt O14920)
# T21 construct: purchased DiscoverX KINOMEscan scanEDGE; Eurofins Cerep SafetyScreen87
# Protocol: as §1
# PAK1 = target: T22, PAK1 (Homo sapiens, UniProt Q13153)
# T22 construct: purchased DiscoverX KINOMEscan scanEDGE; Eurofins Cerep SafetyScreen87
# Protocol: as §1
# ABL1-nonphosphorylated = target: T23, ABL1-nonphosphorylated (Homo sapiens, UniProt P00519)
# T23 construct: purchased DiscoverX KINOMEscan scanEDGE; Eurofins Cerep SafetyScreen87
# Protocol: as §1
# IKK-alpha = target: T24, IKK-alpha (Homo sapiens, UniProt O15111)
# T24 construct: purchased DiscoverX KINOMEscan scanEDGE; Eurofins Cerep SafetyScreen87
# Protocol: as §1
# KIT(V559D,T670I) = target: T25, KIT(V559D,T670I) (Homo sapiens, UniProt P10721, T670I/V559D)
# T25 construct: purchased DiscoverX KINOMEscan scanEDGE; Eurofins Cerep SafetyScreen87
# T25 sequence (P10721 26-976 V559D/T670I): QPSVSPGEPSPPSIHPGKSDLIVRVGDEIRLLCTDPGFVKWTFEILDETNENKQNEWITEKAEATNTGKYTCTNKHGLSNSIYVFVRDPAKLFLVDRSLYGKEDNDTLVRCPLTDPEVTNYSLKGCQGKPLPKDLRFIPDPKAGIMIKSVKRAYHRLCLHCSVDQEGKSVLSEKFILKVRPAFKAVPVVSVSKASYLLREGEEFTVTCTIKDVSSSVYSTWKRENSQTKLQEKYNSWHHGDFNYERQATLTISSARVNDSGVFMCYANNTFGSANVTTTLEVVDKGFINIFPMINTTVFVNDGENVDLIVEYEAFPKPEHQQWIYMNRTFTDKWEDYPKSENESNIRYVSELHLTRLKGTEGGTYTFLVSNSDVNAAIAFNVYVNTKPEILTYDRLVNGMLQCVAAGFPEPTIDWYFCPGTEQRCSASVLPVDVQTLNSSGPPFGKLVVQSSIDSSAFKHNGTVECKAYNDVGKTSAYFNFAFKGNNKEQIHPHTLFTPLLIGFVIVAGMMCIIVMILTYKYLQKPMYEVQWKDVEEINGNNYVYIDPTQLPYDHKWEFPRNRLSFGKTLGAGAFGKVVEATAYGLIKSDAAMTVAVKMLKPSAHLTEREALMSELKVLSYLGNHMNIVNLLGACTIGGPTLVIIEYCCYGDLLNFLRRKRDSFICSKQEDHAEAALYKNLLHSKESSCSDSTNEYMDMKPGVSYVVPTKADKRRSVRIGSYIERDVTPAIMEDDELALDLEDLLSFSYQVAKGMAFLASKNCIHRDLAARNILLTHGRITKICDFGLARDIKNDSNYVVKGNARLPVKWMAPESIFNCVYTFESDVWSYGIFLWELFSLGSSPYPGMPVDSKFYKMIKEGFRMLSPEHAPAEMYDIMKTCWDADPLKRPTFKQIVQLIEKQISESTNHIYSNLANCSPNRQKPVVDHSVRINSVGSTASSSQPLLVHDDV
# Protocol: as §1
# PIM1 = target: T26, PIM1 (Homo sapiens, UniProt P11309)
# T26 construct: purchased DiscoverX KINOMEscan scanEDGE; Eurofins Cerep SafetyScreen87
# Protocol: as §1
# PLK1 = target: T27, PLK1 (Homo sapiens, UniProt P53350)
# T27 construct: purchased DiscoverX KINOMEscan scanEDGE; Eurofins Cerep SafetyScreen87
# Protocol: as §1
# FAK = target: T28, FAK (Homo sapiens, UniProt Q05397)
# T28 construct: purchased DiscoverX KINOMEscan scanEDGE; Eurofins Cerep SafetyScreen87
# Protocol: as §1
# AKT2 = target: T29, AKT2 (Homo sapiens, UniProt P31751)
# T29 construct: purchased DiscoverX KINOMEscan scanEDGE; Eurofins Cerep SafetyScreen87
# Protocol: as §1
# CDK3 = target: T30, CDK3 (Homo sapiens, UniProt Q00526)
# T30 construct: purchased DiscoverX KINOMEscan scanEDGE; Eurofins Cerep SafetyScreen87
# Protocol: as §1
# AURKB = target: T31, AURKB (Homo sapiens, UniProt Q96GD4)
# T31 construct: purchased DiscoverX KINOMEscan scanEDGE; Eurofins Cerep SafetyScreen87
# Protocol: as §1
# PIM3 = target: T32, PIM3 (Homo sapiens, UniProt Q86V86)
# T32 construct: purchased DiscoverX KINOMEscan scanEDGE; Eurofins Cerep SafetyScreen87
# Protocol: as §1
# PDGFRA = target: T33, PDGFRA (Homo sapiens, UniProt P16234)
# T33 construct: purchased DiscoverX KINOMEscan scanEDGE; Eurofins Cerep SafetyScreen87
# T33 sequence (P16234 24-1089): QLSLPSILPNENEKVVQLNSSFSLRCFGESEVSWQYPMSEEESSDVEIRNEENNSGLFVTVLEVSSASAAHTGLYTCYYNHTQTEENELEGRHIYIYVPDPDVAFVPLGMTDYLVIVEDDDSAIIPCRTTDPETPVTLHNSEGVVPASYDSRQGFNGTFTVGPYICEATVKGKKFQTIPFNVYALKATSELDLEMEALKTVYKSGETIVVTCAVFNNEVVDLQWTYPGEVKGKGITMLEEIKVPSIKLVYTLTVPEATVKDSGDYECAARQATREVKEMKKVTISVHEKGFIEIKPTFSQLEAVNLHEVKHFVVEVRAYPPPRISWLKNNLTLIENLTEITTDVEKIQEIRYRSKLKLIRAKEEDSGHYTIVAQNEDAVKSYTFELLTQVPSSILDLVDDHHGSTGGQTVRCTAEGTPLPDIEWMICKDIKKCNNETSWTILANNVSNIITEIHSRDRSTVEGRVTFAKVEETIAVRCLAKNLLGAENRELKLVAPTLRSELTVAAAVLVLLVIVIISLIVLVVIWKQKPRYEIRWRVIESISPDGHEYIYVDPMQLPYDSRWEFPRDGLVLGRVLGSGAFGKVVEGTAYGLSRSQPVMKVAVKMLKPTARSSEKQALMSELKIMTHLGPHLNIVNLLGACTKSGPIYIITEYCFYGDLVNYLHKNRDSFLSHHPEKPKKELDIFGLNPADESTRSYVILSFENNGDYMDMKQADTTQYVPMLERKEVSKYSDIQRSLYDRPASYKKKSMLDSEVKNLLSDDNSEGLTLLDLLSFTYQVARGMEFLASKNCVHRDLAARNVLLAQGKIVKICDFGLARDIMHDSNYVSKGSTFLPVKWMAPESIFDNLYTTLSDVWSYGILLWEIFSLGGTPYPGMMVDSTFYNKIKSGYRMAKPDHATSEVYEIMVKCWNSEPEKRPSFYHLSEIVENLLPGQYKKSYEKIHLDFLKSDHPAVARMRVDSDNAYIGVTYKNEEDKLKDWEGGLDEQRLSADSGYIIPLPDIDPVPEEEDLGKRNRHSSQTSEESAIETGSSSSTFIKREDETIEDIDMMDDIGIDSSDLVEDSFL
# Protocol: as §1
# TGFBR1 = target: T34, TGFBR1 (Homo sapiens, UniProt P36897)
# T34 construct: purchased DiscoverX KINOMEscan scanEDGE; Eurofins Cerep SafetyScreen87
# Protocol: as §1
# [1] = target: T35, JAK2(JH1domain-catalytic) (Homo sapiens, UniProt O60674)
# T35 construct: JAK2(JH1domain-catalytic); purchased DiscoverX KINOMEscan scanEDGE; Eurofins Cerep SafetyScreen87
# Protocol: as §1
# KIT(D816V) = target: T36, KIT(D816V) (Homo sapiens, UniProt P10721, D816V)
# T36 construct: purchased DiscoverX KINOMEscan scanEDGE; Eurofins Cerep SafetyScreen87
# T36 sequence (P10721 26-976 D816V): as the sequence (P10721 26-976 V559D/T670I) above, with D534V, I645T, D791V counted along it
# Protocol: as §1
# RET = target: T37, RET (Homo sapiens, UniProt P07949)
# T37 construct: purchased DiscoverX KINOMEscan scanEDGE; Eurofins Cerep SafetyScreen87
# Protocol: as §1
# p38-beta = target: T38, p38-beta (Homo sapiens, UniProt Q15759)
# T38 construct: purchased DiscoverX KINOMEscan scanEDGE; Eurofins Cerep SafetyScreen87
# Protocol: as §1
# PIM2 = target: T39, PIM2 (Homo sapiens, UniProt Q9P1W9)
# T39 construct: purchased DiscoverX KINOMEscan scanEDGE; Eurofins Cerep SafetyScreen87
# Protocol: as §1
# ZAP70 = target: T40, ZAP70 (Homo sapiens, UniProt P43403)
# T40 construct: purchased DiscoverX KINOMEscan scanEDGE; Eurofins Cerep SafetyScreen87
# Protocol: as §1
structure (smiles),measurement,setting,value
"CNc1ccc(NCCc2ccccc2OC)cc1.Cl [KDS12025, N^1-(2-methoxyphenethyl)-N^4-methylbenzene-1,4-diamine hydrochloride salt]",remaining binding at 10 µM,p38-alpha,100%
same,remaining binding at 10 µM,PDGFRB,92%
same,remaining binding at 10 µM,FGFR2,87%
same,remaining binding at 10 µM,BTK,100%
same,remaining binding at 10 µM,MAP3K4,100%
same,remaining binding at 10 µM,AURKA,86%
same,remaining binding at 10 µM,EPHA2,89%
same,remaining binding at 10 µM,SRC,72%
same,remaining binding at 10 µM,MARK3,66%
same,remaining binding at 10 µM,LKB1,80%
same,remaining binding at 10 µM,CDK2,92%
same,remaining binding at 10 µM,TIE2,100%
same,remaining binding at 10 µM,CDK7,89%
same,remaining binding at 10 µM,MET,82%
same,remaining binding at 10 µM,PIK3CG,100%
same,remaining binding at 10 µM,ERBB4,92%
same,remaining binding at 10 µM,JNK2,91%
same,remaining binding at 10 µM,GSK3B,95%
same,remaining binding at 10 µM,MLK1,79%
same,remaining binding at 10 µM,EGFR,48%
same,remaining binding at 10 µM,IKK-beta,100%
same,remaining binding at 10 µM,PAK1,75%
same,remaining binding at 10 µM,ABL1-nonphosphorylated,72%
same,remaining binding at 10 µM,IKK-alpha,100%
same,remaining binding at 10 µM,"KIT(V559D,T670I)",94%
same,remaining binding at 10 µM,PIM1,95%
same,remaining binding at 10 µM,PLK1,100%
same,remaining binding at 10 µM,FAK,100%
same,remaining binding at 10 µM,AKT2,94%
same,remaining binding at 10 µM,CDK3,79%
same,remaining binding at 10 µM,AURKB,78%
same,remaining binding at 10 µM,PIM3,84%
same,remaining binding at 10 µM,PDGFRA,85%
same,remaining binding at 10 µM,TGFBR1,96%
same,remaining binding at 10 µM,[1],100%
same,remaining binding at 10 µM,KIT(D816V),91%
same,remaining binding at 10 µM,RET,100%
same,remaining binding at 10 µM,p38-beta,100%
same,remaining binding at 10 µM,PIM2,64%
same,remaining binding at 10 µM,ZAP70,88%
